These results are taken from patent US9914723B2, “Small molecule inhibitors of Mcl-1 and uses thereof” (THE REGENTS OF THE UNIVERSITY OF MICHIGAN, priority 2012, dated 2018).

pEC50, pIC50, pKi: −log10 of the molar value. Bounds are passed on as bounds.

In assay [1] the target is T1, Mcl-1 (Homo sapiens, UniProt Q07820). To be noted: cited from earlier work.
For assay [2], the target named is T1, Mcl-1. The assay can be described thus: fluorescence polarizing binding assay, binding to Mcl-1. Particulars: for pIC50: fluorescence polarizing binding assay; for fold decrease of binding affinity to Mcl-1: in comparison with UMI-1033; for binding / inhibition of Mcl-1 compared with UMI-1033, in words: 4-methyl-1-piperazinyl group of UMI-1033 replaced. The method, then: FIGS. 1, 2, 3, and 4 show various compounds for Formula I having various R1, R2, R3, R4, R5, R6, R7 and R8 groups, and related structure activity relationship (SAR) for each respective compound (IC50 values were determined with fluorescence polarizing binding assay).

For a further assay, the target named is Bcl-2 (Homo sapiens, UniProt P10415). The assay can be described thus: Binding affinity against Bcl-2 family anti-apoptotic proteins: Bcl-2.
Chain of Bcl-2 (P10415 whole entry, species assumed): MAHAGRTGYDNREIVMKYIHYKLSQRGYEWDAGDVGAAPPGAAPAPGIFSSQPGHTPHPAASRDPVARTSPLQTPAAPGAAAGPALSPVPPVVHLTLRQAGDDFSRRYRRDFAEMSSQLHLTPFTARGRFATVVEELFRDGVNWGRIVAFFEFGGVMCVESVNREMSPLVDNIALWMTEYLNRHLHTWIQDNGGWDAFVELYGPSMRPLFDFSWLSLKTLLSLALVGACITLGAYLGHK
A further assay concerns the target T2, Bcl-w (Homo sapiens, UniProt Q92843).
T2 sequence (Q92843 1-193): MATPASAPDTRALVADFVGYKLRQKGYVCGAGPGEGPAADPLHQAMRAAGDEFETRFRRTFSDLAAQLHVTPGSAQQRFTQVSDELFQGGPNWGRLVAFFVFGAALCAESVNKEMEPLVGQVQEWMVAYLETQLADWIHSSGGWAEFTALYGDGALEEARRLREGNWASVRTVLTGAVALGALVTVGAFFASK
The assay can be described thus: Binding affinity against Bcl-2 family anti-apoptotic proteins: Bcl-w.

Assay [3] addresses T1, Mcl-1. Put plainly: Binding affinity against Bcl-2 family anti-apoptotic proteins: Mcl-1.
The subject of a further assay is MV4-11. Put plainly: Cellular activity against leukemia human tumor cell lines: MV4-11. The format is cell-based. To be noted: AML-derived cell line. The method, then: (§1) Acute myeloid leukemia (AML) frequently relapses after initial treatment. Drug resistance in AML has been attributed to high levels of the anti-apoptotic Bcl-2 family proteins. Indeed, Mcl-1 is essential for development and survival of acute myelogenous leukemia cells. Therefore the cellular activity of Mcl-1 inhibitors against AML human cancer cell lines was tested. Blockade of Mcl-1 by these inhibitors (see Table 3) killed AML-derived cell lines, HL-60 and MV4-11, but had less impact on the human CML-derived (K562) cell line.

In another assay the target is Bcl-xL (Homo sapiens, UniProt Q07817). The assay can be described thus: Binding affinity against Bcl-2 family anti-apoptotic proteins: Bcl-xL.
Chain of Bcl-xL (Q07817 whole entry, species assumed): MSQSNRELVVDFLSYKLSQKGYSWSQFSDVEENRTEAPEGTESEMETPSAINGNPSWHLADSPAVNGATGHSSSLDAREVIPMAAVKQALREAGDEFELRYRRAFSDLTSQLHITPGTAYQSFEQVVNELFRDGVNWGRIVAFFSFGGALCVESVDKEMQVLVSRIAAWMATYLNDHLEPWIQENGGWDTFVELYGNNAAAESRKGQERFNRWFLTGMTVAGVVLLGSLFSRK
The target of assay [4] is T3, cellular, endogenous Mcl-1 protein (Homo sapiens, UniProt Q07820).
T3 construct: endogenous in cells; host or cells: 2LMP cancer cell line (lysate)
T3 sequence (Q07820 whole entry): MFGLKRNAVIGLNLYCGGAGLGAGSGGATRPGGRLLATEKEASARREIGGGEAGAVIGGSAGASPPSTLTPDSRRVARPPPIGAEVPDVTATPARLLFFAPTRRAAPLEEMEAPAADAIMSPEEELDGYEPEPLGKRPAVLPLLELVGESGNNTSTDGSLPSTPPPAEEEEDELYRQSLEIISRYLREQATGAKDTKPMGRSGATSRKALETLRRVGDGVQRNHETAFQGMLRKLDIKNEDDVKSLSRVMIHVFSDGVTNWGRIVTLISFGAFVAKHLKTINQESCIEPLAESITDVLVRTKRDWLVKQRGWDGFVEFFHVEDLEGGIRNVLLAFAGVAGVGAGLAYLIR
The assay can be described thus: Pull-down assay with biotin-labeled Noxa BH3 peptide (BL-Noxa) in 2LMP cell lysate. The class given is binding.

The subject of the next assay is HL-60. The assay can be described thus: Cellular activity against leukemia human tumor cell lines: HL-60. The class given is cell-based. To be noted: AML-derived cell line. The method, then:
as §1

The target in another assay is T4, A1 (Homo sapiens, UniProt Q16548).
T4 sequence (Q16548 1-175): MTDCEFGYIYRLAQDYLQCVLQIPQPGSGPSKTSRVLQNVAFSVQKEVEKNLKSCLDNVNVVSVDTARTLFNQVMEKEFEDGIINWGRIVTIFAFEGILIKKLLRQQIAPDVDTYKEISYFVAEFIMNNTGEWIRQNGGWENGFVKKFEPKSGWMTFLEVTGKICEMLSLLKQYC
The assay can be described thus: Binding affinity against Bcl-2 family anti-apoptotic proteins: A1.

For the next assay, the system named is K562. Put plainly: Cellular activity against leukemia human tumor cell lines: K562. To be noted: human CML-derived cell line. The class given is cell-based. The method, then: as §1
In the next assay the test system is HL-60 cell line. Put plainly: Induction of apoptosis in HL-60, flow cytometry with Annexin V and propidium iodide double staining; caspase-3 activation. The class given is cell-based, human. An excerpt: To gain insights into the underlying mechanism of action for the cell growth inhibition of this class Mcl-1 inhibitors, the HL-60 cell line was selected and investigated if apoptosis contributes to the antiproliferative effect. Induction of apoptosis was monitored by flow cytometry using Annexin V and propidium iodide double staining.

A further assay relates to MEF DKO cells. Put plainly: Cell death in Bax/Bak deficient (DKO) MEF cells. The class given is cell-based, mouse. The method, then:
(§2) It is known that apoptotic effectors Bak and Bax can be suppressed by multidomain anti-apoptotic proteins such as Mcl-1. To interrogate the mechanism of action, the activity of several novel Mcl-1 inhibitors were evaluated in mouse embryonic fibroblast (MEF) cells that included wild-type (WT) as well as cells deficient in Bax/Bak (DKO).

The next assay concerns MEF WT cells. The assay can be described thus: Cell death in wild-type MEF cells. The class given is cell-based, mouse. The method, then: as §2

T1 sequence (Q07820 whole entry, species assumed): as the sequence (Q07820 whole entry) above

With `CN(C)CC[C@H](CSc1ccccc1)Nc1ccc(S(=O)(=O)NC(=O)c2ccc(N3CCN(Cc4ccccc4-c4ccc(Cl)cc4)CC3)cc2)cc1[N+](=O)[O-]` [ABT-737], at Mcl-1 [1], the “binding to Mcl-1” value was “fails to bind”.
Regarding `CCOC(=O)c1c(C)oc2c1c(C(c1ccc(F)cc1)N1CCN(C)CC1)c(O)c1ccccc12` (stereo not drawn) [UMI-118], on Mcl-1 [2], the pIC50 was 6.72 and the “fold decrease of binding affinity to Mcl-1” value was determined as 3 fold.
On Mcl-1 [2], `CCOC(=O)c1c(C)oc2c1c(C(c1cccc(F)c1)N1CCN(C)CC1)c(O)c1ccccc12` (stereo not drawn) [UMI-1003] gave a pIC50 of 6.70.
For `CCOC(=O)c1c(C)oc2c1c(C(c1ccncc1)N1CCOCC1)c(O)c1ccccc12` (stereo not drawn) [UMI-1007], the pKi on Bcl-2 was < 4.52; at Bcl-w it was < 4.52; on Mcl-1 [3] it was 7.70; at Bcl-xL it was < 4.52; at A1 it was < 4.60. Moreover, the pEC50 in the assay on MV4-11 was 4.89; in the assay with HL-60 it was 4.80. The “disruption of the interactions between BL-Noxa and cellular Mcl-1” value in assay [4] is “effectively disrupted the interactions between BL-Noxa and cellular Mcl-1”.
For `CCOC(=O)c1c(C)oc2c1c(C(c1ccncc1)N1CCN(CC)CC1)c(O)c1ccccc12` (stereo not drawn) [UMI-1008], on Mcl-1 [2], the “binding / inhibition of Mcl-1 compared with UMI-1033, in words” value is recorded as “kept same”.
Consider `CCOC(=O)c1c(C)oc2c1c(C(c1ccncc1)N1CCN(C(C)C)CC1)c(O)c1ccccc12` (stereo not drawn) [UMI-1009], for which the pKi at Bcl-2 is < 4.52; at Bcl-w, < 4.52; at Mcl-1 [3] it was 7.82; on Bcl-xL it was < 4.52; on A1 it was < 4.60. Further, on Mcl-1 [2], the “binding / inhibition of Mcl-1 compared with UMI-1033, in words” value is “kept same”. Moreover, the pEC50 with MV4-11 was 5.15; in the assay on K562 it was < 4.52; with HL-60 it was 5.40. Moreover, the caspase-3 activation result with HL-60 cell line (HL-60) was “activation of caspase-3”. The induction of apoptosis is 37% with HL-60 cell line (HL-60, 5 μM) and 57% in the assay on HL-60 cell line (HL-60, 10 μM).
For the compound `CCOC(=O)c1c(C)oc2c1c(C(c1ccncc1)N1CCc3ccccc3C1)c(O)c1ccccc12` (stereo not drawn) [UMI-1011], on Mcl-1 [2], the pIC50 is 6.72 and the “fold decrease of binding affinity to Mcl-1” value is reported as 3 fold.
With `CCOC(=O)c1c(C)oc2c1c(C(c1ccnc(Cl)c1)N1CCOCC1)c(O)c1ccccc12` (stereo not drawn) [UMI-1026], the pKi on Bcl-2 is < 4.52; on Bcl-w, < 4.52; on Mcl-1 [3] it was 7.52; on Bcl-xL, < 4.52; on A1 it was < 4.60.
For the compound `CCOC(=O)c1c(C)oc2c1c(C(c1ccncc1)N1CCN(C)CC1)c(O)c1ccccc12` (stereo not drawn) [UMI-1033], the pKi was 4.78 at Bcl-2; < 4.52 at Bcl-w; 7.70 at Mcl-1 [3]; < 4.52 on Bcl-xL; < 4.60 at A1. Further, the pEC50 with MV4-11 was 5.15; in the assay with K562, < 4.52; in the assay on HL-60 it was 4.95.
With `COC(=O)c1c(C)oc2c1c(C(c1ccncc1)N1CCN(C)CC1)c(O)c1ccccc12` (stereo not drawn) [UMI-1035], the pKi at Bcl-2 is 4.86; on Bcl-w, 4.55; on Mcl-1 [3], 7.82; at Bcl-xL it was < 4.52; at A1, < 4.60. In addition, the pEC50 was 5.21 with MV4-11 (Homo sapiens, MV4-11); 4.61 in the assay on K562 (K562); 4.91 in the assay on HL-60 (Homo sapiens, HL-60). In the assay with MEF DKO cells, the “cell death in MEF DKO” value is on record as “not in MEF DKO cells”. In the assay on MEF WT cells, the “cell death in MEF WT” value is “induced cell death”.
`COC(=O)c1c(C)oc2c1c(C(c1ccncc1)N1CCOCC1)c(O)c1ccccc12` (stereo not drawn) [UMI-1036]: the negative-log EC50 (pEC50) in the assay with MV4-11 was 5.09; in the assay on K562, < 4.52; with HL-60, 4.79. Also, the “cell death in MEF DKO” value in the assay on MEF DKO cells was “not in MEF DKO cells”. The “cell death in MEF WT” value in the assay on MEF WT cells was “induced cell death”.
On to `CCOC(=O)CN1CCN(C(c2ccncc2)c2c(O)c3ccccc3c3oc(C)c(C(=O)OCC)c23)CC1` (stereo not drawn) [UMI-1042], for which the values for the pEC50 in the assay with MV4-11, in the assay with K562 and in the assay with HL-60 were 5.00, < 4.52 and 4.83, respectively. The “cell death in MEF DKO” value in the assay with MEF DKO cells was “not in MEF DKO cells”. Besides, the “cell death in MEF WT” value in the assay on MEF WT cells is “induced cell death”.

One may read the pIC50 as −log10 of the IC50, conventionally taken in molar units. One may read the pKi as −log10 of the Ki, conventionally taken in molar units. Lower therefore signals a large Ki. Broadly, the pEC50 is the EC50 on a negative log10 scale, so that one unit is a factor of ten. Read a high pEC50 as a small EC50.
